Data from PMC3179866, “Antiproliferative Activity of Xanthones Isolated from Artocarpus obtusus” (Journal of Biomedicine and Biotechnology, 2011).
≈ marks a conversion by molar mass, not a printed value. Like-named read-outs stand apart in the source and are kept apart here.

How the values were obtained:
[1] = system: HL60 (human promyelocytic leukemia) cells; test: MTT cytotoxicity assay, HL60; type: cell-based; conditions: HL-60, 72 h, 72 hours continuous exposure
Excerpt: (§1) The cancerous and noncancerous cell lines (suspension and anchorage-dependent cells) were obtained from the American Type Culture Collection (ATCC) and the RIKEN Cell Bank (RCB). The cancerous cell lines used were HL-60 (human acute promyelocytic leukemia) (RCB), K562 (human chronic myeloid leukemia) (ATCC), MCF7 (human estrogen receptor (ER+) positive breast cancer) (ATCC), HeLa (human cervical cancer) (ATCC), HepG2 (human hepatocarcinoma) (ATCC), HT29 (human colon cancer) (RCI), and MDA-MB 231 (human estrogen receptor (ER−) negative) (ATCC). The noncancerous cell line and normal cells were 3T3 (Mouse embryo fibroblast) (ATCC), MCF10A (human nontumorigenic breast cell line) (ATCC) and PBMC (human peripheral blood mononuclear cells). PBMCs were obtained from one of the authors herself. Blood (10–12 mL) was taken from the donor by using the 25 mL syringe. The blood sample was diluted with same volume of PBS. The diluted blood sample was carefully layered on Ficoll-Paque Plus (Amersham Biosciences, USA) the ratio of 2 : 1. The mixture was centrifuged at 1500× g for 40 minutes at 18–20°C. The undisturbed lymphocyte layer was carefully transferred into centrifuge tube. […]
(§2) The colorimetric assay was performed on the isolated compounds using a modified microculture tetrazolium salt (MTT) assay (Sigma, USA). […] After incubation, the fractions of surviving cells were determined relative to the untreated cell population using the colorimetric MTT assay. In this method, the viabilities of the cells were determined by measuring the amount of blue formazan crystals formed after 20 mL of freshly prepared MTT solution (5 mg in 1 mL PBS) was added to each well followed by four hours of incubation at 37°C. […] Finally, the absorbance (OD) of each well at 570 nm of wavelength was read using the microplate reader (ELISA reader, EL340 Biokinetic Reader, Bio-Tek Instrumentation). […] The percentage of cell viability was determined as follows: […]

[2] = system: MCF7 (human estrogen receptor (ER+) positive breast cancer) cells; test: MTT cytotoxicity assay, MCF7; type: cell-based; conditions: 72 hours continuous exposure
Excerpt: The cancerous and noncancerous cell lines (suspension and anchorage-dependent cells) were obtained from the American Type Culture Collection (ATCC) and the RIKEN Cell Bank (RCB). The cancerous cell lines used were HL-60 (human acute promyelocytic leukemia) (RCB), K562 (human chronic myeloid leukemia) (ATCC), MCF7 (human estrogen receptor (ER+) positive breast cancer) (ATCC), HeLa (human cervical cancer) (ATCC), HepG2 (human hepatocarcinoma) (ATCC), HT29 (human colon cancer) (RCI), and MDA-MB 231 (human estrogen receptor (ER−) negative) (ATCC). The noncancerous cell line and normal cells were 3T3 (Mouse embryo fibroblast) (ATCC), MCF10A (human nontumorigenic breast cell line) (ATCC) and PBMC (human peripheral blood mononuclear cells). PBMCs were obtained from one of the authors herself. Blood (10–12 mL) was taken from the donor by using the 25 mL syringe. The blood sample was diluted with same volume of PBS. The diluted blood sample was carefully layered on Ficoll-Paque Plus (Amersham Biosciences, USA) the ratio of 2 : 1. The mixture was centrifuged at 1500× g for 40 minutes at 18–20°C. The undisturbed lymphocyte layer was carefully transferred into centrifuge tube. The lymphocyte was washed and spun down three times by adding 10 mL sterile PBS and to get the pellet and resuspended in RPMI 1640 (Sigma, USA) with 100 IU/mL of penicillin, 100 μg/mL of streptomycin (Flowlab, Australia), and 10% v/v Fetal Bovine Serum (FBS) (PAA, Austria). Cell counting was performed to determine the PBMC number in equal volume of trypan blue.
as §2, with “USA). Varying concentrations of 0.46, 0.93, 1.87, 3.75, 7.5, 15, and 30 μg/mL of pyranocycloartobiloxanthone A (1), dihydroartoindonesianin C (2), and pyranocycloartobiloxanthone B (3) were prepared from the substock solutions by serial dilution in RPMI 1640 to give a volume of 100 μL in each microtitre plate well (96-flat bottom microwell plates). Each well was then added with 100 μL of cell lines in complete growth media (RPMI 1640) 5 × 10^5 cells/mL.” for “USA).”

[3] = system: PBMC (human peripheral blood mononuclear cells); test: MTT cytotoxicity assay, PBMC; type: cell-based; conditions: PBMC (normal), 72 hours continuous exposure
Excerpt: as §1, §2

[4] = system: HeLa (human cervical cancer) cells; test: MTT cytotoxicity assay, HeLa; type: cell-based; conditions: 72 hours continuous exposure
Excerpt: (§3) The cancerous and noncancerous cell lines (suspension and anchorage-dependent cells) were obtained from the American Type Culture Collection (ATCC) and the RIKEN Cell Bank (RCB). The cancerous cell lines used were HL-60 (human acute promyelocytic leukemia) (RCB), K562 (human chronic myeloid leukemia) (ATCC), MCF7 (human estrogen receptor (ER+) positive breast cancer) (ATCC), HeLa (human cervical cancer) (ATCC), HepG2 (human hepatocarcinoma) (ATCC), HT29 (human colon cancer) (RCI), and MDA-MB 231 (human estrogen receptor (ER−) negative) (ATCC). […]
as §2

[5] = system: MDA-MB 231 (human estrogen receptor (ER-) negative) cells; test: MTT cytotoxicity assay, MDA-MB 231; type: cell-based; conditions: MDA-MB 231, MTT, 72 hours continuous exposure
Excerpt: as §3, §2

[6] = system: HT29 (human colon cancer) cells; test: MTT cytotoxicity assay, HT29; type: cell-based; conditions: HT-29, 72 hours continuous exposure
Excerpt: as §3, §2

[7] = system: HepG2 (human hepatocarcinoma) cells; test: MTT cytotoxicity assay, HepG2; type: cell-based; conditions: 72 hours continuous exposure
Excerpt: as §3, §2

[8] = system: 3T3 (mouse embryo fibroblast) cells; test: MTT cytotoxicity assay, 3T3; type: cell-based; conditions: 3T3, MTT, 72 hours continuous exposure
Excerpt: as §3, §2

[9] = system: MCF10A (human nontumorigenic breast cell line); test: MTT cytotoxicity assay, MCF10A; type: cell-based; conditions: MCF10A (normal), 72 hours continuous exposure
Excerpt: as §3, §2

[10] = system: HL60 cells; test: Cell proliferation ELISA BrdU assay, HL60; type: cell-based, human; conditions: HL60, treated at IC50 concentration (2 μg/mL)
Description: (§4) This assay was conducted to determine the antiproliferative effects of the tested compound. In this assay, three different concentrations of compound or test sample were prepared together with control. The concentration chosen were 1 μg/mL, the IC50 concentration, and 20 μg/mL. Two types of cells were selected: HL-60 (suspension) and MCF7 (adherent) cells, since they gave the most significant results for the cytotoxic activity. The procedures are according to the instruction manual from Roche. Each sample was assayed in triplicate, and control samples include a blank (no cells) and background (without BrdU). The cells were treated by pyranocycloartobiloxanthone A (1) for 24, 48, and 72 hours. The cells were cultured together with various dilutions of test substance (tested compound) in 96-well MP flat bottom in a final volume of 100 μL/well, and 10 μL BrdU label (diluted by 1/2000 in media) was added to each well and incubated for 24 hour at 37°C. BrdU label was then replaced with 200 μL of fix/denaturing solution for 30 min at room temperature (25°C) and removed by inverting the plate. The anti-BrdU-POD working solution (100 μL/well) (diluted by 1/100 in dilution buffer) was added and incubated for one hour at room temperature. The cells were washed three times with wash buffer and once with dH2O. Then, removed dH2O and 100 μL of substrate solution was added to each well and incubated for 15 min at room temperature in the dark. The stop solution (100 μL/well) was added, and the absorbance was measured using ELISA reader at 450 nm, (reference wavelength 690). The activity was observed by the optical density (OD) of the absorbance at 450 nm, and graphs were plotted from the optical density obtained against time of exposure for each cell lines.

[11] = system: MCF7 cells; test: Cell proliferation ELISA BrdU assay, MCF7; type: cell-based, human; conditions: MCF7, treated at IC50 concentration (5 μg/mL)
Description: as §4

[12] = system: HL60 cells; test: Acridine orange / propidium iodide staining, HL60; type: cell-based, human; conditions: HL60, 2 μg/mL (IC50), 72 hours
Description: (§5) Cell suspensions were mixed with an equal volume of staining solution (1 : 1) containing 10 μg/mL acridine orange and 10 μg/mL propium iodide (dissolved in PBS) and observed under fluorescence microscope within 30 minutes. The viable (green intact cells), apoptotic (green shrinking cells with condensed of fragmented nucleus), and necrotic (red cells) were the morphological changes that were examined under fluorescence microscope.

[13] = system: MCF7 cells; test: Acridine orange / propidium iodide staining, MCF7; type: cell-based, human; conditions: MCF7, 5 μg/mL (IC50), 72 hours
Description: as §5

[14] = system: K562 (human chronic myeloid leukemia) cells; test: MTT cytotoxicity assay, K562; type: cell-based; conditions: K562, 72 h, 72 hours continuous exposure
Excerpt: as §3, §2

## COc1cccc2c1C(=O)c1c(O)c3c(c(O)c1C2=O)C[C@@](O)(C(=O)CO)C[C@@H]3O[C@H]1C[C@H](N)[C@H](O)[C@H](C)O1 [Doxorubicin, reference compound]
[1]
  IC50: 0.2 ± 0.03 µg/mL (≈ 0.368 µM)
[2]
  IC50: 0.2 ± 0.06 µg/mL (≈ 0.368 µM)
[3]; Homo sapiens, read-out: IC50
  IC50: > 30 µg/mL

## CC1C(O)Oc2c(O)cc(O)c3c2C1Cc1c-3oc2c3c(cc(O)c2c1=O)OC(C)(C)C=C3 (stereo not drawn) [compound 1, pyranocycloartobiloxanthone A]
[2]
  IC50: 5 ± 1.2 µg/mL (≈ 11.1 µM)
[4]
  IC50: 8 ± 3.3 µg/mL (≈ 17.8 µM)
[5]
  IC50: 12 ± 1.1 µg/mL (≈ 26.6 µM)
[6]
  IC50: 14 ± 1.5 µg/mL (≈ 31.1 µM)
[7]
  IC50: 20 ± 2 µg/mL (≈ 44.4 µM)
[8]
  IC50: 7 ± 1.6 µg/mL (≈ 15.5 µM)
[9]; Homo sapiens, MCF-10A, read-out: IC50
  IC50: > 30 µg/mL
[9]
  IC50: not toxic
[3]; Homo sapiens, read-out: IC50
  IC50: > 30 µg/mL
[3]
  IC50: not toxic
[10]; 24 hours, untreated 1.34
  OD value (BrdU ELISA, 450 nm): 0.8
[10]; 48 hours, untreated 1.26
  OD value (BrdU ELISA, 450 nm): 0.78
[10]; 72 hours, untreated 1.65
  OD value (BrdU ELISA, 450 nm): 0.66
[11]; 24 hours, untreated 1.44
  OD value (BrdU ELISA, 450 nm): 0.89
[11]; 48 hours, untreated 2.08
  OD value (BrdU ELISA, 450 nm): 0.75
[11]; 72 hours, untreated 2.88
  OD value (BrdU ELISA, 450 nm): 0.66
[12]
  mode of cell death (AO/PI morphology): kill both cells in apoptotic manner
[13]
  mode of cell death (AO/PI morphology): kill both cells in apoptotic manner

## C=C(C)c1cc2c(=O)c3c(O)cc4c(c3oc2c2c1C(C)(O)CC2=O)C=CC(C)(C)O4 (stereo not drawn) [compound 2, dihydroartoindonesianin C]
[1]
  IC50: 26 ± 0.8 µg/mL (≈ 62.1 µM)
[14]
  IC50: > 30 µg/mL
[2]
  IC50: 27 ± 1.9 µg/mL (≈ 64.5 µM)

## CC1Oc2c(O)cc(O)c3c2C(Cc2c-3oc3c4c(cc(O)c3c2=O)OC(C)(C)C=C4)C1O (stereo not drawn) [compound 3, pyranocycloartobiloxanthone B]
[1]
  IC50: 17 ± 0.8 µg/mL (≈ 37.7 µM)
[14]
  IC50: > 30 µg/mL
[2]
  IC50: 23 ± 1.3 µg/mL (≈ 51.1 µM)
